Test results reported in ChEMBL document CHEMBL3046166, “Synthesis and biological evaluation of some new Thiazolo[3,2-a][1,3,5]triazine derivatives” (2012).
Active and inactive are the calls of the source. The calls are words filed in the database; no cut-off is given here.

Legend:
[1] = Induction of DNA fragmentation using ethidium bromide staining by agarose gel electrophoresis
Escherichia coli = assay: Antibacterial activity against Escherichia coli after 24 hr by agar diffusion technique; type: functional

Structure (SMILES) | Activity [1] | diameter of the inhibition zone (DIZ) (Escherichia coli)
O=c1/c(=C/c2ccc3c(c2)OCO3)sc2n1CN(c1ccccc1)CN=2 | Active | 14 mm
N=C1NC(=O)/C(=C/c2ccccc2)S1 | Active | 15 mm
CSC(=S)C1Sc2nc(=S)sc(=S)n2C1=O (centres undefined) | Active | 14 mm
O=c1/c(=C/c2ccc(/C=c3/sc4n(c3=O)CN(c3ccccc3)CN=4)cc2)sc2n1CN(c1ccccc1)CN=2 | Active | 14 mm
O=c1/c(=C/c2ccc(Cl)cc2)sc2n1CN(c1ccccc1)CN=2 | Active | 14 mm
Cc1ccc(N/N=C2/SC3=NCN(c4ccccc4)CN3C2=O)cc1 | Active | 13 mm
CC1(C)S[C@@H]2[C@H](NC(=O)[C@H](N)c3ccccc3)C(=O)N2[C@H]1C(=O)O [AMPICILLIN] |  | 21 mm
CN(C)/C=c1\sc2n(c1=O)CN(c1ccccc1)CN=2 | Active | 26 mm
O=C1CSC2=NCN(c3ccccc3)CN12 | Active | 26 mm
N=C1NC(=O)CS1 | Active | 14 mm
